Columns and labels:
Assay in all cases: whole-cell patch clamp, mechanically activated current block
Assay type in all cases: cell-based
mPiezo1 [1] = target: T1, mPiezo1 (Mus musculus, UniProt E2JF22, E2133K); settings: -80 mV; extracellular RR; pH 7.3; room temperature
T1 construct: gene Piezo1; full length, 2547 residues, IRES-EGFP pcDNA3.1(-) vector, transfected HEK293T

mPiezo2 [2] = target: T2, mPiezo2 (Mus musculus, UniProt Q8CD54); settings: -80 mV; extracellular RR; pH 7.3; room temperature
T2 construct: gene Piezo2; full length, pCMV-Sport6 vector (printed for the E2416K mutant), transfected HEK293T

mPiezo2 [3] = target: T3, mPiezo2 (Mus musculus, UniProt Q8CD54, E2416K); settings: -80 mV; extracellular RR; pH 7.3; room temperature
T3 construct: gene Piezo2; full length, pCMV-Sport6 vector (printed for the E2416K mutant), transfected HEK293T
T3 sequence (Q8CD54 whole entry E2416K): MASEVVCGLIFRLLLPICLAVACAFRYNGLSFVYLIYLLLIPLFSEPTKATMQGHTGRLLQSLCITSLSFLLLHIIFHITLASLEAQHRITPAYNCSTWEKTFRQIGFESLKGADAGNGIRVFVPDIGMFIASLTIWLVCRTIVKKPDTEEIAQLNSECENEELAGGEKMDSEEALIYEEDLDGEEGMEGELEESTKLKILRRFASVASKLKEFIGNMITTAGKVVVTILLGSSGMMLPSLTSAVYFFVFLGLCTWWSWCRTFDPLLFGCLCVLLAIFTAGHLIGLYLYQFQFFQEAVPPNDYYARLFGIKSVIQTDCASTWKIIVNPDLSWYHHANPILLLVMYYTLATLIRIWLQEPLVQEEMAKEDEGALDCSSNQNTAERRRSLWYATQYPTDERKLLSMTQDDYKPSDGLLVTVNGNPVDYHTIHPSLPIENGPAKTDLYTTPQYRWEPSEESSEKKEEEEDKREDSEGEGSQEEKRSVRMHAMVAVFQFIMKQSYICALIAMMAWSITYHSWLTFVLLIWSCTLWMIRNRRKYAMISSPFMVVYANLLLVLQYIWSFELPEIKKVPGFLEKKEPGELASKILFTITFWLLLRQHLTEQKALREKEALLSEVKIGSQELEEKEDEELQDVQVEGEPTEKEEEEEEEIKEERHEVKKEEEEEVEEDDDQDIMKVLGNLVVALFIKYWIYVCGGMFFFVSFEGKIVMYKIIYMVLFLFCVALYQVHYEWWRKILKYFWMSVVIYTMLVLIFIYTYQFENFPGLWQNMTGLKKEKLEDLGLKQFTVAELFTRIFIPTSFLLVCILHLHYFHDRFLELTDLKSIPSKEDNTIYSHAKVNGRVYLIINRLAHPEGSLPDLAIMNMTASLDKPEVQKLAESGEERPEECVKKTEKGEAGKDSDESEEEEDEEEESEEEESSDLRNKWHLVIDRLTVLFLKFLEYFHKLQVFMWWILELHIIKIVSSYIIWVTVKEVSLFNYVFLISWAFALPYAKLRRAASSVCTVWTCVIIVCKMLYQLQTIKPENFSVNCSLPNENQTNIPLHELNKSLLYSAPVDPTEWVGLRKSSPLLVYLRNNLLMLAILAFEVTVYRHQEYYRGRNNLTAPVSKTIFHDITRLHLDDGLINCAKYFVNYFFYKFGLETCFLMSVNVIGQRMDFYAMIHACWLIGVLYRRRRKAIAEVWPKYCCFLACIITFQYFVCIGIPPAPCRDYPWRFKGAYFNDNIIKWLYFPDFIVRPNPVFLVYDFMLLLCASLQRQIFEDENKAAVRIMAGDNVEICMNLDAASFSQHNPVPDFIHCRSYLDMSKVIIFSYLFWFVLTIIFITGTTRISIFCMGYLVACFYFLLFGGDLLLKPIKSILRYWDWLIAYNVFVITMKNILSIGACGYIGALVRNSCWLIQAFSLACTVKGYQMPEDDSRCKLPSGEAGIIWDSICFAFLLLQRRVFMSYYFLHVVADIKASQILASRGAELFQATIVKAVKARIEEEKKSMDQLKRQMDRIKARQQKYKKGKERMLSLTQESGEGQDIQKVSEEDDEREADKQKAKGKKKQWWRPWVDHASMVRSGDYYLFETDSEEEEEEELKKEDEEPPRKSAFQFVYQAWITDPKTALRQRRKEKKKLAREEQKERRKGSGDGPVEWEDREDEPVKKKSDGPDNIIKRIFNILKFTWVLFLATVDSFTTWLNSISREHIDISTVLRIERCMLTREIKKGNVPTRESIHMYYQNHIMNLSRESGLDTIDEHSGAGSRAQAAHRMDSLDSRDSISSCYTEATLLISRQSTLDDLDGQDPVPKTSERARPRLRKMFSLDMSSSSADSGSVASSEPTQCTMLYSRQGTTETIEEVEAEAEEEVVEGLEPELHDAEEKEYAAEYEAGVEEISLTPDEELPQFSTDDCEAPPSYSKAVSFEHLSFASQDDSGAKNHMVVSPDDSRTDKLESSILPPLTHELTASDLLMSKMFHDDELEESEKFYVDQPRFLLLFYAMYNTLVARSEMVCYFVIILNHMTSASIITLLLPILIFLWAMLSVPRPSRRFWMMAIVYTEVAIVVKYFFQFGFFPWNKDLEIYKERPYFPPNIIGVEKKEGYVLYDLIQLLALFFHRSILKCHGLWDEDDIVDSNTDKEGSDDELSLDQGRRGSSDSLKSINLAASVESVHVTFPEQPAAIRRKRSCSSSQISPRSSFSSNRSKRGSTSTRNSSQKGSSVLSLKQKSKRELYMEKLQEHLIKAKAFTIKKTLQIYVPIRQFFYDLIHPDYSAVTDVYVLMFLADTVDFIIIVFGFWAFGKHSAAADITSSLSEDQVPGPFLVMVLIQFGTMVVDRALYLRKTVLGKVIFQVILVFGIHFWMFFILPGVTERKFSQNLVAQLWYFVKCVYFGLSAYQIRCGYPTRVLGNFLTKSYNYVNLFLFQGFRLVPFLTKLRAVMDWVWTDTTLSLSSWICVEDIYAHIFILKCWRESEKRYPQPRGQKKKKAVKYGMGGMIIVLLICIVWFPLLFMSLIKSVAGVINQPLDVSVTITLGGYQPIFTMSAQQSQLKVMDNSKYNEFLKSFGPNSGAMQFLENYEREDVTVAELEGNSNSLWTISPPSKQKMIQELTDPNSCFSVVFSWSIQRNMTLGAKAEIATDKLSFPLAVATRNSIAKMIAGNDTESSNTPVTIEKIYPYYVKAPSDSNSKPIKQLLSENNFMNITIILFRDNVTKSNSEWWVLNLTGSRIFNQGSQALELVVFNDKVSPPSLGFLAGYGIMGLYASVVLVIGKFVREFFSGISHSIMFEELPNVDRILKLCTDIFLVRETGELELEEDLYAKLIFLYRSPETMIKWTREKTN

mPiezo1 [4] = target: T4, mPiezo1 (Mus musculus, UniProt E2JF22, E2133D); settings: -80 mV; extracellular RR; pH 7.3; room temperature
T4 construct: gene Piezo1; full length, 2547 residues, IRES-EGFP pcDNA3.1(-) vector, transfected HEK293T

mPiezo1 [5] = target: T5, mPiezo1 (Mus musculus, UniProt E2JF22); settings: -80 mV; extracellular RR; pH 7.3; room temperature; voltage-dependent pore block
T5 construct: gene Piezo1; full length, 2547 residues, IRES-EGFP pcDNA3.1(-) vector, transfected HEK293T

mPiezo1 [6] = target: T6, mPiezo1 (Mus musculus, UniProt E2JF22, E2133Q); settings: -80 mV; extracellular RR; pH 7.3; room temperature
T6 construct: gene Piezo1; full length, 2547 residues, IRES-EGFP pcDNA3.1(-) vector, transfected HEK293T

## N.N.N.N.N.N.N.N.N.N.N.N.N.N.[Cl-].[Cl-].[Cl-].[Cl-].[Cl-].[Cl-].[O-2].[O-2].[Ru+3].[Ru+3].[Ru+4] [ruthenium red]
mPiezo1 [1]
  % block at 30 μM: 8.1±7.1%
mPiezo2 [2]
  % block at 30 μM: 70.8±1.4%
mPiezo2 [3]
  % block at 30 μM: 49.6±4.6%
mPiezo1 [4]
  IC50: 1.26 ± 0.28 µM
mPiezo1 [5]
  IC50: 4.71 ± 0.83 µM
mPiezo1 [6]
  IC50: 5.62 ± 1.27 µM

Reference: paper PMC4445471, “Piezo1 ion channel pore properties are dictated by C-terminal region” (Nature Communications, 2015)
